Experimental data as given in PubChem BioAssay (NCI).
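GI50 marks 50% less growth. TGI: concentration producing complete growth inhibition.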

Assays:
Assay in all cases: NCI tumour cell line growth inhibition, 384-well format
[1] = system: NCI-H226 lung
[2] = system: SNB-75 CNS
[3] = system: SK-MEL-2 melanoma
[4] = system: BT-549 breast
[5] = system: HCC-2998 colon
[6] = system: DU-145 prostate
[7] = system: OVCAR-4 ovarian
[8] = system: SN12C renal
[9] = system: HL-60(TB) leukemia
[10] = system: SR leukemia
[11] = system: KM12 colon
[12] = system: IGROV1 ovarian
[13] = system: U251 glioblastoma
[14] = system: T-47D breast
[15] = system: HOP-92 NSCLC
[16] = system: SK-MEL-28 melanoma
[17] = system: NCI/ADR-RES ovarian
[18] = system: HCT-15 colon
[19] = system: SW-620 colon
[20] = system: RXF 393 renal
[21] = system: SK-OV-3 ovarian
[22] = system: NCI-H522 lung
[23] = system: K-562 leukemia
[24] = system: M14 melanoma
[25] = system: SF-539 CNS
[26] = system: 786-0 renal
[27] = system: MALME-3M melanoma
[28] = system: EKVX NSCLC
[29] = system: COLO 205 colon
[30] = system: RPMI-8226 leukemia
[31] = system: HOP-62 NSCLC
[32] = system: MDA-MB-231 breast
[33] = system: UACC-62 melanoma
[34] = system: CAKI-1 renal
[35] = system: HS 578T breast
[36] = system: A498 renal
[37] = system: SK-MEL-5 melanoma
[38] = system: UACC-257 melanoma
[39] = system: NCI-H460 NSCLC
[40] = system: SF-295 CNS
[41] = system: A549 NSCLC
[42] = system: CCRF-CEM leukemia
[43] = system: ACHN renal
[44] = system: MDA-MB-468 breast
[45] = system: OVCAR-5 ovarian
[46] = system: TK-10 renal
[47] = system: NCI-H322M lung
[48] = system: PC-3 prostate
[49] = system: NCI-H23 lung
[50] = system: MOLT-4 leukemia
[51] = system: OVCAR-3 ovarian
[52] = system: SNB-19 CNS
[53] = system: HT29 colon
[54] = system: OVCAR-8 ovarian
[55] = system: SF-268 CNS
[56] = system: MDA-MB-435 melanoma
[57] = system: MCF7 breast
[58] = system: HCT-116 colon

## C[C@@H]1OC(O)[C@@H](F)[C@H](O)[C@@H]1O (stereo partly specified)
[1]
  GI50: > 100 µM
  TGI: > 100 µM
[2]
  GI50: > 100 µM
  TGI: > 100 µM
[3]
  GI50: > 100 µM
  TGI: > 100 µM
[4]
  GI50: > 100 µM
  TGI: > 100 µM
[5]
  GI50: > 100 µM
  TGI: > 100 µM
[6]
  GI50: > 100 µM
  TGI: > 100 µM
[7]
  GI50: > 100 µM
  TGI: > 100 µM
[8]
  GI50: > 100 µM
  TGI: > 100 µM
[9]
  GI50: > 100 µM
  TGI: > 100 µM
[10]
  GI50: > 100 µM
  TGI: > 100 µM
[11]
  GI50: > 100 µM
  TGI: > 100 µM
[12]
  GI50: > 100 µM
  TGI: > 100 µM
[13]
  GI50: > 100 µM
  TGI: > 100 µM
[14]
  GI50: > 100 µM
  TGI: > 100 µM
[15]
  GI50: > 100 µM
  TGI: > 100 µM
[16]
  GI50: > 100 µM
  TGI: > 100 µM
[17]
  GI50: > 100 µM
  TGI: > 100 µM
[18]
  GI50: > 100 µM
  TGI: > 100 µM
[19]
  GI50: > 100 µM
  TGI: > 100 µM
[20]
  GI50: > 100 µM
  TGI: > 100 µM
[21]
  GI50: > 100 µM
  TGI: > 100 µM
[22]
  GI50: > 100 µM
  TGI: > 100 µM
[23]
  GI50: > 100 µM
  TGI: > 100 µM
[24]
  GI50: > 100 µM
  TGI: > 100 µM
[25]
  GI50: > 100 µM
  TGI: > 100 µM
[26]
  GI50: > 100 µM
  TGI: > 100 µM
[27]
  GI50: > 100 µM
  TGI: > 100 µM
[28]
  GI50: > 100 µM
  TGI: > 100 µM
[29]
  GI50: > 100 µM
  TGI: > 100 µM
[30]
  GI50: > 100 µM
  TGI: > 100 µM
[31]
  GI50: > 100 µM
  TGI: > 100 µM
[32]
  GI50: > 100 µM
  TGI: > 100 µM
[33]
  GI50: > 100 µM
  TGI: > 100 µM
[34]
  GI50: > 100 µM
  TGI: > 100 µM
[35]
  GI50: > 100 µM
  TGI: > 100 µM
[36]
  GI50: > 100 µM
  TGI: > 100 µM
[37]
  GI50: > 100 µM
  TGI: > 100 µM
[38]
  GI50: > 100 µM
  TGI: > 100 µM
[39]
  GI50: > 100 µM
  TGI: > 100 µM
[40]
  GI50: > 100 µM
  TGI: > 100 µM
[41]
  GI50: > 100 µM
  TGI: > 100 µM
[42]
  GI50: > 100 µM
  TGI: > 100 µM
[43]
  GI50: > 100 µM
  TGI: > 100 µM
[44]
  GI50: > 100 µM
  TGI: > 100 µM
[45]
  GI50: > 100 µM
  TGI: > 100 µM
[46]
  GI50: > 100 µM
  TGI: > 100 µM
[47]
  GI50: > 100 µM
  TGI: > 100 µM
[48]
  GI50: > 100 µM
  TGI: > 100 µM
[49]
  GI50: > 100 µM
  TGI: > 100 µM
[50]
  GI50: > 100 µM
  TGI: > 100 µM
[51]
  GI50: > 100 µM
  TGI: > 100 µM
[52]
  GI50: > 100 µM
  TGI: > 100 µM
[53]
  GI50: > 100 µM
  TGI: > 100 µM
[54]
  GI50: > 100 µM
  TGI: > 100 µM
[55]
  GI50: > 100 µM
  TGI: > 100 µM
[56]
  GI50: > 100 µM
  TGI: > 100 µM
[57]
  GI50: > 100 µM
  TGI: > 100 µM
[58]
  GI50: > 100 µM
  TGI: > 100 µM
